Laboratory results published in ChEMBL document CHEMBL4673259, “Discovery of isoquinolinone and naphthyridinone-based inhibitors of poly(ADP-ribose) polymerase-1 (PARP1) as anticancer agents: Structure activity relationship and preclinical characterization” (Bioorg Med Chem, 2020).

Tests used:
[1] = system: MDA-MB-436; test: Cytotoxicity against human MDA-MB-436 cells assessed as inhibition of cell viability incubated for 4 days by CellTiterGlo luminescence assay; settings: MDA-MB-436, 96 h
[2] = target: T1, Poly [ADP-ribose] polymerase 1 (Homo sapiens, UniProt P09874); test: Inhibition of PARP1 in human MDA-MB-436 cells assessed as inhibition of PARylation at 10 nM incubated for 1 hr by chemiluminescence assay; format: cell-based
T1 sequence (P09874 whole entry): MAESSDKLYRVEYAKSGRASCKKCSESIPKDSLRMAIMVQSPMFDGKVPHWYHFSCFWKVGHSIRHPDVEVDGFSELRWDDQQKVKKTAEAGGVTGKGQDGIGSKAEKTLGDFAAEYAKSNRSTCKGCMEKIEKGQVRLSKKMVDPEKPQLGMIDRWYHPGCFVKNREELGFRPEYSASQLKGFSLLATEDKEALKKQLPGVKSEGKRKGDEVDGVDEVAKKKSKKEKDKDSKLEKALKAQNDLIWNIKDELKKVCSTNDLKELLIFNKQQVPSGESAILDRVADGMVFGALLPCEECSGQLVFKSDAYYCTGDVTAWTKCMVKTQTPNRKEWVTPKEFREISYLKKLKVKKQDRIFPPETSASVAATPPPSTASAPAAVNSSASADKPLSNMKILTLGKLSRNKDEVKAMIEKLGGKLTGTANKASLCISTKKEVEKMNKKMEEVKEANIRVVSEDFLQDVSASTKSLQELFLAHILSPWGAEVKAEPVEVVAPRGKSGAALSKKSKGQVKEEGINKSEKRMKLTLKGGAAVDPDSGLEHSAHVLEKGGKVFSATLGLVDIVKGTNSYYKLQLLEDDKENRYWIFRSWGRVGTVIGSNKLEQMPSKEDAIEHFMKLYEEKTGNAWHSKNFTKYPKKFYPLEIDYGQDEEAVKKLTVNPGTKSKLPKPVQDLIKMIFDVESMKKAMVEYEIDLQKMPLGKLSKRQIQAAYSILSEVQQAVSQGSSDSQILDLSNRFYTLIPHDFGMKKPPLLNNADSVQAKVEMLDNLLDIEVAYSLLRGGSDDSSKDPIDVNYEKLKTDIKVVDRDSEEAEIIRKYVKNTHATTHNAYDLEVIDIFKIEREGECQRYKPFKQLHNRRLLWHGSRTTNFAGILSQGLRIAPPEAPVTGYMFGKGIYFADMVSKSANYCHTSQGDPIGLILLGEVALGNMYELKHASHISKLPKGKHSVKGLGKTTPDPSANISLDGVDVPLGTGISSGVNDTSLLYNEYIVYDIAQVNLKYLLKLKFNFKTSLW

[3] = system: MDA-MB-436; test: Cytotoxicity against human MDA-MB-436 cells assessed as inhibition of cell viability incubated for 14 days with three intermittent intervals by CellTiterGlo luminescence assay; settings: MDA-MB-436, 336 h
[4] = target: T1, Poly [ADP-ribose] polymerase 1; test: Inhibition of N-terminal GST-tagged human full length PARP1 (2 to 1041 residues) expressed in baculovirus infected Sf9 cells using histone mixture (H2A and H2B) and biotinylated NAD+ as substrate in presence of activated DNA incubated for 60 mins by chemiluminescence assay
[5] = target: Poly [ADP-ribose] polymerase 2 (Homo sapiens, UniProt Q9UGN5); test: Inhibition of N-terminal GST-tagged human PARP2 (2 to 583 residues) expressed in baculovirus infected Sf9 cells using histone mixture (H2A and H2B) and biotinylated NAD+ as substrate in presence of activated DNA incubated for 60 mins by chemiluminescence assay
Poly [ADP-ribose] polymerase 2, sequence (Q9UGN5 whole entry, the tested form may be a part): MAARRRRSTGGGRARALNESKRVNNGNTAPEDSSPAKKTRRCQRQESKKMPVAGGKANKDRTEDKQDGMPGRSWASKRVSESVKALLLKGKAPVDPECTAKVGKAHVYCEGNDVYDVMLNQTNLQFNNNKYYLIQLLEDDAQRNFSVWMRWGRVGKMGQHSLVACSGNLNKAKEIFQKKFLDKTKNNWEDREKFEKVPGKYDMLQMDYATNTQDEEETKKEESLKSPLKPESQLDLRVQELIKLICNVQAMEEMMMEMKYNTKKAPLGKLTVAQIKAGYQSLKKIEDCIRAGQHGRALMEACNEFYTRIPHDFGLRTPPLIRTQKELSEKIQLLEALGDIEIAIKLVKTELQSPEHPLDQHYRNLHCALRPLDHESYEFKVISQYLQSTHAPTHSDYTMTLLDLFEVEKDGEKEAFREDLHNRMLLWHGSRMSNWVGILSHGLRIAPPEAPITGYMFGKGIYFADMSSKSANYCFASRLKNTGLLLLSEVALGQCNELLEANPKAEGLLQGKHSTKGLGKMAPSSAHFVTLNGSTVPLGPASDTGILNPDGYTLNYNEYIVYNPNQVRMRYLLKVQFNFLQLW

[6] = Volume of distribution at steady state in BALB/c mouse at 1 mg/kg, iv measured up to 24 hrs by LC-MS/MS analysis; format: ADME, organism-based; settings: in vivo, read-out: Vdss
[7] = Tmax in BALB/c mouse at 10 mg/kg, po measured up to 24 hrs by LC-MS/MS analysis; format: ADME, organism-based; settings: in vivo
[8] = Cmax in BALB/c mouse at 1 mg/kg, iv measured up to 24 hrs by LC-MS/MS analysis; format: ADME, organism-based; set-up: route intravenous, dose 1 mg/kg, time <=24; settings: in vivo
[9] = AUClast in BALB/c mouse at 1 mg/kg, iv measured up to 24 hrs by LC-MS/MS analysis; format: ADME, organism-based; set-up: route intravenous, dose 1 mg/kg, time <=24; settings: in vivo
[10] = Half life in BALB/c mouse at 1 mg/kg, iv measured up to 24 hrs by LC-MS/MS analysis; format: ADME, organism-based; settings: in vivo
[11] = AUClast in BALB/c mouse at 10 mg/kg, po measured up to 24 hrs by LC-MS/MS analysis; format: ADME, organism-based; set-up: route oral, dose 10 mg/kg, time <=24; settings: in vivo
[12] = Oral bioavailability in BALB/c mouse at 10 mg/kg measured up to 24 hrs by LC-MS/MS analysis; format: ADME, organism-based; settings: in vivo
[13] = Cmax in BALB/c mouse at 10 mg/kg, po measured up to 24 hrs by LC-MS/MS analysis; format: ADME, organism-based; set-up: route oral, dose 10 mg/kg, time <=24; settings: in vivo
[14] = system: MCF7; test: Cytotoxicity against human MCF7 cells harboring wild type BRCA at 1000 nM relative to control; format: cell-based; settings: mcf7, 1 µM
[15] = Tmax in BALB/c mouse at 1 mg/kg, iv measured up to 24 hrs by LC-MS/MS analysis; format: ADME, organism-based; settings: in vivo
[16] = system: MDA-MB-436; test: Anticancer activity against human MDA-MB-436 cells harboring BRCA mutant xenografted in SCID/nude mouse assessed as tumor growth regression at 1.5 mg/kg, po bid and measured up to 5 weeks post-drug administration; format: functional; settings: MDA-MB-436, po, 840 h, time weeks <=5
[17] = system: HEK293; test: Cytotoxicity against HEK293 cells at 1000 nM relative to control; format: cell-based; settings: human, hek293, 1 µM
[18] = Clearance in BALB/c mouse at 1 mg/kg, iv measured up to 24 hrs by LC-MS/MS analysis; format: ADME, organism-based; settings: in vivo
[19] = system: HEK293; test: Cytotoxicity against HEK293 cells assessed as inhibition of cell viability; format: cell-based; settings: human
[20] = system: SK-ES1; test: Potentiation of anticancer activity against human SK-ES-1 cells harboring EWSF1 translocation xenografted in SCID/nude mouse assessed as tumor growth inhibition at 3 mg/kg, po bid for 12 days co-administered with TMZ measured up to 9 weeks post drug administration; format: functional; settings: 288 h, time 12 day
[21] = system: CAPAN-1; test: Potentiation of anticancer activity against human CAPAN-1 cells harboring BRCA mutant xenografted in SCID/nude mouse assessed as tumor growth inhibition at 3 mg/kg, po bid for 12 days co-administered with TMZ measured up to 9 weeks post-drug administration; format: functional; settings: CAPAN-1, po, 288 h, time 12 day
[22] = system: MDA-MB-436; test: Potentiation of anticancer activity against human MDA-MB-436 cells harboring BRCA mutant xenografted in SCID/nude mouse assessed as tumor growth inhibition at 3 mg/kg, po bid for 12 days co-administered with TMZ measured up to 9 weeks post-drug administration; format: functional; settings: MDA-MB-436, po, 288 h, time 12 day
[23] = system: MDA-MB-436; test: Anticancer activity against human MDA-MB-436 cells harboring BRCA mutant xenografted in SCID/nude mouse assessed as tumor growth regression at 50 mg/kg, po bid and measured up to 5 weeks post-drug administration; format: functional; settings: MDA-MB-436, po, 840 h, time weeks <=5
[24] = Toxicity in SCID/nude mouse xenografted with human MDA-MB-436 cells harboring BRCA mutant assessed as body weight loss at 50 mg/kg, po bid; format: organism-based; settings: in vivo
[25] = Toxicity against SCID/nude mouse xenografted with human MDA-MB-436 cells harboring BRCA mutant assessed as body weight loss at 0.15 mg/kg, po bid for 12 days co-administered with lower dose of TMZ; format: organism-based; settings: in vivo, 288 h, time 12 day
[26] = Toxicity against SCID/nude mouse xenografted with human MDA-MB-436 cells harboring BRCA mutant assessed as hypothermia at 0.15 mg/kg, po bid for 12 days co-administered with 35 mg/kg, po TMZ; format: organism-based; settings: in vivo, 288 h, time 12 day
[27] = Toxicity against SCID/nude mouse xenografted with human SK-ES-1 cells harboring EWSF1 translocation assessed as hypothermia at 0.15 mg/kg, po bid for 12 days co-administered with 35 mg/kg, po TMZ; format: organism-based; settings: in vivo, 288 h, time 12 day
[28] = Toxicity against SCID/nude mouse xenografted with human MDA-MB-436 cells harboring BRCA mutant assessed as body weight loss at 0.15 mg/kg, po bid for 12 days co-administered with 35 mg/kg, po TMZ; format: organism-based; settings: in vivo, 288 h, time 12 day
[29] = Toxicity against SCID/nude mouse xenografted with human CAPAN-1 cells harboring BRCA mutant assessed as body weight loss at 0.15 mg/kg, po bid for 12 days co-administered with 35 mg/kg, po TMZ; format: organism-based; settings: in vivo, 288 h, time 12 day
[30] = Toxicity against SCID/nude mouse xenografted with human CAPAN-1 cells harboring BRCA mutant assessed as hypothermia at 0.15 mg/kg, po bid for 12 days co-administered with 35 mg/kg, po TMZ; format: organism-based; settings: in vivo, 288 h, time 12 day
[31] = Toxicity against SCID/nude mouse xenografted with human SK-ES-1 cells harboring EWSF1 translocation assessed as body weight loss at 0.15 mg/kg, po bid for 12 days co-administered with 35 mg/kg, po TMZ; format: organism-based; settings: in vivo, 288 h, time 12 day
[32] = Toxicity against SCID/nude mouse xenografted with human SK-ES-1 cells harboring EWSF1 translocation assessed as body weight loss at 0.15 mg/kg, po bid for 12 days co-administered with lower dose of TMZ; format: organism-based; settings: in vivo, 288 h, time 12 day
[33] = Toxicity against SCID/nude mouse xenografted with human CAPAN-1 cells harboring BRCA mutant assessed as body weight loss at 0.15 mg/kg, po bid for 12 days co-administered with lower dose of TMZ; format: organism-based; settings: in vivo, 288 h, time 12 day
[34] = system: MDA-MB-436; test: Anticancer activity against human MDA-MB-436 cells harboring BRCA mutant xenografted in SCID/nude mouse assessed as tumor growth regression at 0.15 mg/kg, po bid and measured up to 5 weeks post-drug administration; format: functional; settings: MDA-MB-436, po, 840 h, time weeks <=5
[35] = Toxicity in SCID/nude mouse xenografted with human MDA-MB-436 cells harboring BRCA mutant assessed as body weight loss at 0.15 mg/kg, po bid; format: organism-based; settings: in vivo

inhibition [2]	IC50 [4]	IC50 [5]	Compound	IC50 [1]	IC50 [3]	further results
92%	600 pM	1500 pM	N#Cc1ccc(N2CCN([C@H]3C=C(c4cc5c(N)cccc5c(=O)[nH]4)CC3)CC2)cc1	109 pM	5 pM	
	5600 pM	58000 pM	N#Cc1ccc(N2CCN([C@@H]3C=C(c4cc5c(N)cc(F)cc5c(=O)[nH]4)CC3)CC2)c(F)c1			
92%	1000 pM	16600 pM	N#Cc1ccc(N2CCN([C@H]3C=C(c4cc5ncccc5c(=O)[nH]4)CC3)CC2)nc1	1100 pM	50 pM	
68%	900 pM	9500 pM	Nc1cc(F)cc2c(=O)[nH]c(CCCN3CCN(c4ccc(F)cc4)CC3)cc12	1130 pM	50 pM	
89%	900 pM	2600 pM	N#Cc1ccc(N2CCN([C@H]3C=C(c4cc5c(N)cc(F)cc5c(=O)[nH]4)CC3)CC2)c(F)c1	60 pM	50 pM	
92%	1000 pM	1300 pM	N#Cc1ccc(N2CCN([C@H]3C=C(c4cc5c(N)cc(F)cc5c(=O)[nH]4)CC3)CC2)cc1	73 pM	1.6 pM	Vd [6]: 0.4 L/kg; Tmax [7]: 15 min; Cmax [8]: 11 µM; AUC(0-t) at 24 h [9]: 18 µM·h; half-life [10]: 132 min; AUC(0-t) at 24 h [11]: 106 µM·h; bioavailability [12]: 59%; Cmax [13]: 19 µM; Activity [14]: 36%; Tmax [15]: 4.8 min; inhibition in vivo at 1.5 mg/kg [16]: 94%; Activity [17]: 65%; clearance [18]: 2.2 mL/min/kg
86%	600 pM	3900 pM	N#Cc1ccc(N2CCN(CCCc3cc4c(N)cc(F)cc4c(=O)[nH]3)CC2)cc1	15 pM	0.6 pM	Vd [6]: 0.8 L/kg; Tmax [7]: 15 min; Activity [19]: Non-Toxic; Cmax [8]: 3.7 µM; AUC(0-t) at 24 h [9]: 2.4 µM·h; half-life [10]: 66 min; AUC(0-t) at 24 h [11]: 1.9 µM·h; bioavailability [12]: 8%; Cmax [13]: 1.5 µM; Activity [14]: 23%; Tmax [15]: 4.8 min; inhibition in vivo at 1.5 mg/kg [16]: 29%; clearance [18]: 17 mL/min/kg
62%	800 pM	10800 pM	CNC(=O)c1ccc(N2CCN(CCCc3cc4c(N)cc(F)cc4c(=O)[nH]3)CC2)cc1	350 pM	10 pM	
			CNCc1ccc(-c2[nH]c3cc(F)cc4c3c2CCNC4=O)cc1 [RUCAPARIB]			inhibition in vivo at 3 mg/kg [20]: 20.6%; inhibition in vivo at 3 mg/kg [21]: 46%; inhibition in vivo at 3 mg/kg [22]: 95%
83%	2500 pM	167000 pM	N#Cc1ccc(N2CCN([C@@H]3C=C(c4cc5c(N)cccc5c(=O)[nH]4)CC3)CC2)cc1			
			O=C(c1cc(Cc2n[nH]c(=O)c3ccccc23)ccc1F)N1CCN(C(=O)C2CC2)CC1 [OLAPARIB]			inhibition in vivo at 50 mg/kg [23]: 40%; inhibition in vivo at 3 mg/kg [20]: 39.5%; inhibition in vivo at 3 mg/kg [21]: 49%; Activity [24]: 10%; inhibition in vivo at 3 mg/kg [22]: 39%
91%			Cn1ncnc1[C@H]1c2n[nH]c(=O)c3cc(F)cc(c23)N[C@@H]1c1ccc(F)cc1 [TALAZOPARIB]			Activity [25]: Non-Toxic; Activity [26]: Toxic; Activity [27]: Toxic; Activity [28]: Toxic; Activity [29]: Toxic; Activity [30]: Toxic; Activity [14]: 98%; Activity [31]: Toxic; Activity [32]: Non-Toxic; Activity [33]: Non-Toxic; inhibition in vivo at 0.15 mg/kg [34]: 65%; Activity [17]: 95%; Activity [35]: 10%
93%	600 pM	7200 pM	N#Cc1ccc(N2CCN(CCCc3cc4c(N)cccc4c(=O)[nH]3)CC2)cc1	20 pM	1 pM	
91%	900 pM	26900 pM	N#Cc1ccc(N2CCN([C@H]3C=C(c4cc5ncc(F)cc5c(=O)[nH]4)CC3)CC2)cc1	170 pM	7 pM	
54%	400 pM	4600 pM	NC(=O)c1ccc(N2CCN(CCCc3cc4c(N)cc(F)cc4c(=O)[nH]3)CC2)cc1	1480 pM	330 pM	
40%	5000 pM	200000 pM	N#Cc1ccc(N2CCN([C@@H]3C=C(c4cc5c(N)cc(F)cc5c(=O)[nH]4)CC3)CC2)cc1			
